In this experiment the test system is L1210 leukemia ip in BDF1 mice, survival T/C. The experiment is described as follows: NCI In Vivo Anticancer Drug Screen. Data for tumor model L1210 Leukemia (intraperitoneal) in B6D2F1 (BDF1) mice. The settings on record: endpoint: mean survival time, higher = longer survival. A digest of the protocol:
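Transplanted-tumor mice were given test agent; controls received vehicle only. Survival readings from the two groups were divided (treated over control).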

Setting [1] is: dose: 100.0 mg/kg/injection, schedule: Q04DX002 (ip), vehicle: gum acacia.
The mark [2] stands for this setting: dose: 200.0 mg/kg/injection, schedule: Q04DX002 (ip), vehicle: gum acacia.
Where [3] appears, read: dose: 400.0 mg/kg/injection, schedule: Q04DX002 (ip), vehicle: gum acacia.
Setting [4] is: dose: 100.0 mg/kg/injection, schedule: Q04DX002 (ip), vehicle: saline with Tween-80.
Where [5] appears, read: dose: 200.0 mg/kg/injection, schedule: Q04DX002 (ip), vehicle: saline with Tween-80.
Where [6] appears, read: dose: 400.0 mg/kg/injection, schedule: Q04DX002 (ip), vehicle: saline with Tween-80.
The mark [7] stands for this setting: dose: 100.0 mg/kg/injection, schedule: Q01DX001 (ip), vehicle: saline.
[8] abbreviates: dose: 200.0 mg/kg/injection, schedule: Q01DX001 (ip), vehicle: saline.
[9] abbreviates: dose: 400.0 mg/kg/injection, schedule: Q01DX001 (ip), vehicle: saline.
Setting [10] is: dose: 100.0 mg/kg/injection, schedule: Q01DX001 (ip), vehicle: carboxymethylcellulose (CMC).

Several values for one entry are separate records, joined by “and”; a condition that tells them apart may be missing. Equal entries are not always repeated. Toxic doses and inconclusive results are not listed.

For the compound `O=C(Nc1ccc(Cl)cc1C(F)(F)F)Sc1ccc(Cl)cc1`, the T/C by setting is: (dose: 100.0 mg/kg/injection, schedule: Q01DX001 (ip), vehicle: gum acacia) 103 % of control and 104 % of control; (dose: 100.0 mg/kg/injection, schedule: Q01DX009 (ip), vehicle: gum acacia) 92 % of control; under setting [1], 99 % of control and 88 % of control; (dose: 100.0 mg/kg/injection, schedule: Q04DX003 (ip), vehicle: gum acacia) 92 % of control and 87 % of control; (dose: 200.0 mg/kg/injection, schedule: Q01DX001 (ip), vehicle: gum acacia) 98 % of control and 103 % of control; (dose: 200.0 mg/kg/injection, schedule: Q01DX009 (ip), vehicle: gum acacia) 90 % of control. The T/C is, setting by setting: under setting [2], 101 % of control and 102 % of control; (dose: 200.0 mg/kg/injection, schedule: Q04DX003 (ip), vehicle: gum acacia) 92 % of control and 109 % of control; (dose: 400.0 mg/kg/injection, schedule: Q01DX001 (ip), vehicle: gum acacia) 100 % of control and 103 % of control; under setting [3], 97 % of control and 89 % of control; (dose: 400.0 mg/kg/injection, schedule: Q04DX003 (ip), vehicle: gum acacia) 97 % of control and 90 % of control.
As to `CCOC(=O)c1ccc(NC(=S)Nc2ncccc2C)cc1`, the T/C was 103 % of control under setting [4], 103 % of control under setting [5] and 95 % of control under setting [6].
Take `COc1cc(C=O)ccc1OC(=O)Nc1cccc(C(C)=O)c1`: the T/C is, setting by setting: (dose: 100.0 mg/kg/injection, schedule: Q01DX009 (ip), vehicle: Klucel (hydroxypropylcellulose) (HPC)) 96 % of control; (dose: 200.0 mg/kg/injection, schedule: Q01DX009 (ip), vehicle: Klucel (hydroxypropylcellulose) (HPC)) 92 % of control.
With `C=CCNC(=O)c1cncc(C(=O)O)c1`, the T/C under setting [7] was 96 % of control, the T/C under setting [8] was 104 % of control and the T/C under setting [9] was 98 % of control.
`CSCC1OC(n2nnc3c(N)ncnc32)C(O)C1O` (centres undefined): the T/C by setting is: (dose: 100.0 mg/kg/injection, schedule: Q01DX001 (ip), vehicle: Klucel (hydroxypropylcellulose) (HPC)) 100 % of control; (dose: 200.0 mg/kg/injection, schedule: Q01DX001 (ip), vehicle: Klucel (hydroxypropylcellulose) (HPC)) 103 % of control.
With `C=CC1(O)CCOCC1`, the T/C runs as follows: (dose: 25.0 mg/kg/injection, schedule: Q01DX001 (ip), vehicle: saline) 97 % of control; (dose: 50.0 mg/kg/injection, schedule: Q01DX001 (ip), vehicle: saline) 97 % of control; under setting [7], 97 % of control.
`CCOC(=O)C(=O)CC(=O)/C=C/c1ccccc1`: the T/C is 96 % of control (dose: 100.0 mg/kg/injection, schedule: Q01DX009 (ip), vehicle: saline with Tween-80); 101 % of control (dose: 100.0 mg/kg/injection, schedule: Q04DX003 (ip), vehicle: Klucel (hydroxypropylcellulose) (HPC)); 101 % of control (dose: 200.0 mg/kg/injection, schedule: Q01DX009 (ip), vehicle: saline with Tween-80); 98 % of control (dose: 200.0 mg/kg/injection, schedule: Q04DX003 (ip), vehicle: Klucel (hydroxypropylcellulose) (HPC)); 98 % of control (dose: 400.0 mg/kg/injection, schedule: Q01DX009 (ip), vehicle: saline with Tween-80); 101 % of control (dose: 400.0 mg/kg/injection, schedule: Q04DX003 (ip), vehicle: Klucel (hydroxypropylcellulose) (HPC)).
For `CC1(C)OC2C3COC(O3)C(O)C2O1` (centres undefined), the T/C reads like this: under setting [4], 99 % of control; under setting [5], 99 % of control; under setting [6], 96 % of control.
`COC(=O)c1cc(NS(=O)(=O)c2ccc(N)cc2)cc(C(=O)OC)c1`: the T/C reads like this: under setting [7], 93 % of control; under setting [8], 95 % of control; under setting [9], 97 % of control.
Regarding `CC1(C)CC(=O)CC(C)(C#N)C1` (centres undefined), the T/C (dose: 6.25 mg/kg/injection, schedule: Q01DX009 (ip), vehicle: Klucel (hydroxypropylcellulose) (HPC)) is 97 % of control; the T/C (dose: 12.5 mg/kg/injection, schedule: Q01DX009 (ip), vehicle: Klucel (hydroxypropylcellulose) (HPC)) is 99 % of control; the T/C (dose: 12.5 mg/kg/injection, schedule: Q04DX003 (ip), vehicle: Klucel (hydroxypropylcellulose) (HPC)) was 91 % of control; the T/C (dose: 25.0 mg/kg/injection, schedule: Q04DX003 (ip), vehicle: Klucel (hydroxypropylcellulose) (HPC)) was 93 % of control.
On to `Cc1ccc([N+](=O)[O-])cc1NC(=O)Sc1ccccc1O`, for which the T/C reads like this: (dose: 200.0 mg/kg/injection, schedule: Q04DX003 (ip), vehicle: saline with Tween-80) 92 % of control; (dose: 400.0 mg/kg/injection, schedule: Q04DX003 (ip), vehicle: saline with Tween-80) 90 % of control.
On to `NC(=O)SCC(=O)Nc1ccc2ncccc2c1`, for which the T/C (dose: 50.0 mg/kg/injection, schedule: Q01DX001 (ip), vehicle: carboxymethylcellulose (CMC)) is 97 % of control; the T/C (dose: 88.0 mg/kg/injection, schedule: Q01DX001 (ip), vehicle: carboxymethylcellulose (CMC)) was 95 % of control and 112 % of control; the T/C under setting [10] is 94 % of control; the T/C (dose: 100.0 mg/kg/injection, schedule: Q01DX009 (ip), vehicle: saline sonified) is 98 % of control; the T/C (dose: 100.0 mg/kg/injection, schedule: Q04DX003 (ip), vehicle: saline) was 93 % of control; the T/C (dose: 134.0 mg/kg/injection, schedule: Q01DX001 (ip), vehicle: carboxymethylcellulose (CMC)) is 95 % of control and 105 % of control. In addition, the T/C (dose: 200.0 mg/kg/injection, schedule: Q01DX009 (ip), vehicle: saline sonified) was 90 % of control; the T/C (dose: 200.0 mg/kg/injection, schedule: Q04DX003 (ip), vehicle: saline) was 109 % of control; the T/C (dose: 300.0 mg/kg/injection, schedule: Q01DX001 (ip), vehicle: carboxymethylcellulose (CMC)) was 100 % of control and 87 % of control; the T/C (dose: 400.0 mg/kg/injection, schedule: Q01DX001 (ip), vehicle: carboxymethylcellulose (CMC)) was 100 % of control; the T/C (dose: 400.0 mg/kg/injection, schedule: Q01DX009 (ip), vehicle: saline sonified) was 101 % of control; the T/C (dose: 400.0 mg/kg/injection, schedule: Q04DX003 (ip), vehicle: saline) was 96 % of control.
For `C=CCSc1ncnc2c1ncn2C1OC(CO)C(O)C1O` (centres undefined), the T/C (dose: 25.0 mg/kg/injection, schedule: Q01DX Z (ip), vehicle: saline) was 109 % of control and 120 % of control; the T/C (dose: 30.0 mg/kg/injection, schedule: Q01DX Z (ip), vehicle: saline) is 106 % of control; the T/C (dose: 45.0 mg/kg/injection, schedule: Q01DX Z (ip), vehicle: saline) is 108 % of control; the T/C (dose: 78.0 mg/kg/injection, schedule: Q01DX001 (ip), vehicle: carboxymethylcellulose (CMC)) was 112 % of control; the T/C (dose: 99.0 mg/kg/injection, schedule: Q01DX Z (ip), vehicle: saline) is 162 % of control; the T/C under setting [10] is 115 % of control. Further, the T/C (dose: 100.0 mg/kg/injection, schedule: Q01DX Z (ip), vehicle: saline) was 166 % of control; the T/C (dose: 118.0 mg/kg/injection, schedule: Q01DX001 (ip), vehicle: carboxymethylcellulose (CMC)) is 123 % of control; the T/C (dose: 151.0 mg/kg/injection, schedule: Q01DX Z (ip), vehicle: saline) is 170 % of control and 181 % of control; the T/C (dose: 200.0 mg/kg/injection, schedule: Q01DX009 (ip), vehicle: carboxymethylcellulose (CMC)) was 93 % of control; the T/C (dose: 200.0 mg/kg/injection, schedule: Q01DX Z (ip), vehicle: saline) was 150 % of control; the T/C (dose: 266.0 mg/kg/injection, schedule: Q01DX001 (ip), vehicle: carboxymethylcellulose (CMC)) was 150 % of control. The T/C runs as follows: (dose: 300.0 mg/kg/injection, schedule: Q01DX Z (ip), vehicle: saline) 96 % of control; (dose: 338.0 mg/kg/injection, schedule: Q01DX Z (ip), vehicle: saline) 111 % of control.
`CN(C)CCOC(=O)/C=C/c1ccccc1`: the T/C by setting is: (dose: 50.0 mg/kg/injection, schedule: Q01DX009 (ip), vehicle: saline) 89 % of control; (dose: 100.0 mg/kg/injection, schedule: Q01DX009 (ip), vehicle: saline) 96 % of control; (dose: 200.0 mg/kg/injection, schedule: Q01DX009 (ip), vehicle: saline) 88 % of control.
With `CC12CCC(O)CC1CCC1C2CCC2(C)C(C(=O)O)CCC12` (centres undefined), the T/C by setting is: under setting [1], 99 % of control; under setting [2], 86 % of control; under setting [3], 89 % of control.

Source of the values: PubChem BioAssay AID248 (DTP/NCI, 2004).
